# From ChEMBL document CHEMBL1138982 (Bioorg Med Chem Lett, 2006)
# pKi: −log10 of the molar value.
# Target: Substance-P receptor (Homo sapiens, UniProt P25103)
# Experiment: Displacement of [3H]-labeled substance P from cloned human NK1 receptor expressed in CHO cells
# Assay type: cell-based
# Conditions: not given
# Chain of Substance-P receptor (P25103 whole entry): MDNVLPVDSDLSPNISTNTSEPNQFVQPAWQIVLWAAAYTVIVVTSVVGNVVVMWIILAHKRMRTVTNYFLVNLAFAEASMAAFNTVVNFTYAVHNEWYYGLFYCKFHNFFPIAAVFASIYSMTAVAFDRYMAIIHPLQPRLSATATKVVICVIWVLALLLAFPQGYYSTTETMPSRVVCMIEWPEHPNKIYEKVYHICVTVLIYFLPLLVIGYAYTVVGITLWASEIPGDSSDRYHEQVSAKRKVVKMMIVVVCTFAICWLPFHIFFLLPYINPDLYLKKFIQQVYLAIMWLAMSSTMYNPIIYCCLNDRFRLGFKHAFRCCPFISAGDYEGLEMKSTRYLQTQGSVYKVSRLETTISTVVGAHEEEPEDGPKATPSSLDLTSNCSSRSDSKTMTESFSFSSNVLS
row,Structure (SMILES),pKi
1,CN(C(=O)Cc1cc(C(F)(F)F)cc(C(F)(F)F)c1)c1ccccc1-c1ccccc1,6.25
2,CN(C(=O)c1ccccc1-c1ccccc1)C(C)(C)c1cc(C(F)(F)F)cc(C(F)(F)F)c1,6.53
3,Clc1cncc(Cl)c1N/N=C/c1ccccc1-c1ccccc1Br,7.31
4,CC(C)(NC(=O)c1ccccc1-c1ccccc1)c1cc(C(F)(F)F)cc(C(F)(F)F)c1,< 5.00
5,CN(Cc1cc(C(F)(F)F)cc(C(F)(F)F)c1)C(=O)c1ccccc1-c1ccccc1,7.29
6,FC(F)(F)c1cc(CNCc2ccccc2-c2ccccc2)cc(C(F)(F)F)c1,6.43
7,O=C(NCc1cc(C(F)(F)F)cc(C(F)(F)F)c1)c1ccccc1-c1ccccc1,< 5.00
8,Clc1ccccc1-c1ccccc1/C=N/Nc1c(Cl)cncc1Cl,6.76
9,Clc1cncc(Cl)c1N/N=C/c1ccccc1-c1c(Cl)cccc1Cl,7.03
10,FC(F)(F)c1cc(COCc2ccccc2-c2ccccc2)cc(C(F)(F)F)c1,6.65
11,CN(Cc1cc(C(F)(F)F)cc(C(F)(F)F)c1)Cc1ccccc1-c1ccccc1,6.14
12,Cc1ccccc1-c1ccccc1/C=N/Nc1c(Cl)cncc1Cl,6.50
13,CN(Cc1cc(C(F)(F)F)cc(C(F)(F)F)c1)C(=O)c1ccccc1-c1ccccc1Br,7.35
14,CN(Cc1cc(C(F)(F)F)cc(C(F)(F)F)c1)C(=O)c1ccccc1-c1ccccc1Cl,7.66
15,Cc1onc(-c2c(Cl)cccc2Cl)c1/C=N/Nc1c(Cl)cncc1Cl,7.82
16,Clc1cncc(Cl)c1N/N=C/c1ccccc1-c1ccccc1,6.03
17,CN(C(=O)C(C)(C)c1cc(C(F)(F)F)cc(C(F)(F)F)c1)c1ccccc1-c1ccccc1,7.17

# The next lines start with the values.
row,pKi,Structure (SMILES)
1,8.77,Cc1ccccc1-c1nc(N2CCN(C)CC2)ncc1C(=O)N(C)Cc1cc(C(F)(F)F)cc(C(F)(F)F)c1
2,9.02,Cc1ccccc1-c1cc(N2CCN(C)CC2)ncc1N(C)C(=O)C(C)(C)c1cc(C(F)(F)F)cc(C(F)(F)F)c1 [NETUPITANT]
3,8.85,Cc1ccccc1-c1cc(N2CCN(C)CC2)ccc1C(=O)N(C)Cc1cc(C(F)(F)F)cc(C(F)(F)F)c1
4,8.89,Cc1ccccc1-c1cc(N2CCS(=O)(=O)CC2)ncc1N(C)C(=O)C(C)(C)c1cc(C(F)(F)F)cc(C(F)(F)F)c1
5,8.21,Cc1ccccc1-c1ccc(N2CCN(C)CC2)nc1C(=O)N(C)Cc1cc(C(F)(F)F)cc(C(F)(F)F)c1
6,8.70,Cc1ccccc1-c1ccc(N2CCN(C)CC2)nc1N(C)C(=O)C(C)(C)c1cc(C(F)(F)F)cc(C(F)(F)F)c1
7,9.36,Cc1ccccc1-c1nc(N2CCN(C)CC2)ncc1N(C)C(=O)C(C)(C)c1cc(C(F)(F)F)cc(C(F)(F)F)c1
8,8.96,Cc1ccccc1-c1cnc(N2CCN(C)CC2)nc1N(C)C(=O)C(C)(C)c1cc(C(F)(F)F)cc(C(F)(F)F)c1
9,8.40,Cc1ccccc1-c1cccnc1N(C)C(=O)C(C)(C)c1cc(C(F)(F)F)cc(C(F)(F)F)c1
10,8.34,Cc1ccccc1-c1cnccc1C(=O)N(C)Cc1cc(C(F)(F)F)cc(C(F)(F)F)c1
11,8.07,Cc1ccccc1-c1ccncc1C(=O)N(C)Cc1cc(C(F)(F)F)cc(C(F)(F)F)c1
12,8.77,Cc1ccccc1-c1cnc(N2CCN(C)CC2)cc1N(C)C(=O)C(C)(C)c1cc(C(F)(F)F)cc(C(F)(F)F)c1
13,8.42,Cc1ccccc1-c1cccnc1C(=O)N(C)Cc1cc(C(F)(F)F)cc(C(F)(F)F)c1
14,8.48,Cc1ccccc1-c1cnccc1N(C)C(=O)C(C)(C)c1cc(C(F)(F)F)cc(C(F)(F)F)c1
15,9.40,Cc1ccccc1-c1cc(N2CCC(O)CC2)ncc1N(C)C(=O)C(C)(C)c1cc(C(F)(F)F)cc(C(F)(F)F)c1

# Tested on: Gerbil, jird
# Experiment: Inhibition of GR-73632 induced foot tapping in gerbil, po
# Assay type: functional
# Conditions: Meriones, read-out: ID50 (the source's name)
row,Structure (SMILES),ED50
1,Cc1ccccc1-c1cc(N2CCOCC2)ncc1N(C)C(=O)C(C)(C)c1cc(C(F)(F)F)cc(C(F)(F)F)c1 [BEFETUPITANT],0.2 mg/kg
2,Cc1ccccc1-c1cc(N2CCN(C)CC2)ncc1N(C)C(=O)C(C)(C)c1cc(C(F)(F)F)cc(C(F)(F)F)c1 [NETUPITANT],0.5 mg/kg
3,Cc1ccccc1-c1cc(N2CCS(=O)(=O)CC2)ncc1N(C)C(=O)C(C)(C)c1cc(C(F)(F)F)cc(C(F)(F)F)c1,0.8 mg/kg
4,Cc1ccccc1-c1cc(N2CCC(O)CC2)ncc1N(C)C(=O)C(C)(C)c1cc(C(F)(F)F)cc(C(F)(F)F)c1,0.5 mg/kg
